By EC50 is commonly meant the concentration giving half of the maximal effect. The term CC50 denotes the concentration giving 50% cytotoxicity.

Data set [1] deals with Human immunodeficiency virus 1. Description: Antiviral activity against HIV1 in human MT4 cells assessed as inhibition of virus-induced cytopathogenicity by MTT assay. The class given is functional, organism-based. Conditions: Human immunodeficiency virus 1, MT4. In general terms: Protection from cytopathic effect is a common read-out in antiviral testing.
A short description of data set [2]: Cytotoxicity against mock-infected human MT4 cells by MTT assay. The data set is classed as cell-based.
Data set [3] can be described thus: Selectivity index, ratio of CC50 for human MT4 cells to EC50 for HIV1. Conditions: read-out: Ratio CC50/EC50. The class given is toxicity, cell-based.

In the case of `Cc1ccccc1CCOC(=S)Nc1ccc([N+](=O)[O-])cc1`, the half-maximal effective concentration (EC50) in data set [1] came to 0.7 µM. For the same molecule, the CC50 in data set [2] was > 100 µM. In data set [3], the selectivity ratio was > 143.

With `O=[N+]([O-])c1ccc(NC(=S)OCCc2ccccc2)cc1`, the CC50 in data set [2] is > 100 µM.

For the molecule `O=[N+]([O-])c1ccc(NC(=S)OCCc2ccccc2Cl)cc1`, in data set [1], the concentration giving a half-maximal response (EC50) worked out at 0.4 µM. In addition, the CC50 in data set [2] was > 100 µM. Further, the selectivity ratio in data set [3] is > 250.

For the molecule `COc1ccc(CCOC(=S)Nc2ccc([N+](=O)[O-])cc2)cc1`, the half-maximal effective concentration (EC50) in data set [1] was 1.4 µM. For the same molecule, the half-maximal cytotoxic concentration (CC50) in data set [2] is > 100 µM. In addition, the selectivity ratio in data set [3] was > 71.

Regarding `CC(COc1ccccc1)OC(=S)Nc1ccc(Cl)cc1` (racemic), the EC50 in data set [1] came to 1.6 µM. The cytotoxic concentration (CC50) in data set [2] was > 100 µM. Further, the selectivity ratio in data set [3] was > 63.

Consider `S=C(Nc1ccccc1)OCC1COc2ccccc2O1` (centres undefined), for which the concentration for a half-maximal effect (EC50) in data set [1] was found to be 52 µM. Further, the half-maximal cytotoxic concentration (CC50) in data set [2] is > 100 µM. Also, the selectivity ratio in data set [3] was > 1.9.

Consider `CC(OC(=S)Nc1ccccc1)c1ccc(Cl)cc1` (racemic), for which the EC50 in data set [1] is 5.3 µM. Also, in data set [2], the CC50 is > 100 µM. The selectivity ratio in data set [3] is > 19.

As to `O=[N+]([O-])c1ccc(NC(=S)OCCc2ccc(Br)cc2)cc1`, in data set [1], the EC50 was 7.9 µM. The CC50 in data set [2] was > 100 µM. Also, the selectivity ratio in data set [3] is > 13.

With `O=[N+]([O-])c1ccc(NC(=S)OCCc2cccc(O)c2)cc1`, the EC50 in data set [1] is 3.7 µM. It took 24 µM to reach half-maximal cytotoxicity in data set [2] (CC50). Also, the selectivity ratio in data set [3] is 6.5.

In the case of `S=C(Nc1ccccc1)OC1Cc2ccccc2C1`, the EC50 in data set [1] worked out at 12 µM. Further, the 50% cytotoxic concentration (CC50) in data set [2] is > 100 µM. Moreover, the selectivity ratio in data set [3] is > 8.3.

As to `COc1cccc(CCOC(=S)Nc2ccc(Cl)c([N+](=O)[O-])c2)c1`, the concentration for a half-maximal effect (EC50) in data set [1] is 2 µM. In data set [2], this molecule yielded a cytotoxic concentration (CC50) of 43 µM. The selectivity ratio in data set [3] was 22.

In the case of `S=C(Nc1ccccc1)OCCCc1ccccc1`, the EC50 in data set [1] was determined as 67 µM. Moreover, the 50% cytotoxic concentration (CC50) in data set [2] is > 100 µM. In addition, the selectivity ratio in data set [3] was > 1.5.

Turning to `O=[N+]([O-])c1ccc(NC(=S)OCCOc2ccccc2)cc1`, the EC50 in data set [1] is 8.5 µM. In addition, the CC50 in data set [2] was > 100 µM. Besides, in data set [3], the selectivity ratio was > 12.

In the case of `CC(OC(=S)Nc1ccc(Cl)cc1)c1ccc(-c2ccccc2)cc1` (racemic), the 50% effective concentration (EC50) in data set [1] was 57 µM. In data set [2], the cytotoxic concentration (CC50) is > 100 µM. For the same molecule, in data set [3], the selectivity ratio is > 1.8.

As to `S=C(Nc1ccccc1)OCC(c1ccccc1)c1ccccc1`, in data set [1], the EC50 is > 100 µM. Also, in data set [2], the 50% cytotoxic concentration (CC50) is > 100 µM.

In the case of `CC(Cc1ccccc1)OC(=S)Nc1ccccc1` (racemic), in data set [1], the EC50 came out at 9 µM. The CC50 in data set [2] was > 100 µM. The selectivity ratio in data set [3] was > 11.

On to `COc1ccc(NC(=S)OCCOc2ccccc2)cc1`, for which the EC50 in data set [1] turned out to be 17 µM. Further, in data set [2], half-maximal cytotoxicity (CC50) was put at 48 µM. Besides, the selectivity ratio in data set [3] is 2.8.

As to `O=[N+]([O-])c1ccc(OCCOC(=S)Nc2ccc(Cl)cc2)cc1`, the EC50 in data set [1] was > 72 µM. Besides, in data set [2], the midpoint of cytotoxicity, the CC50, lay at 72 µM. For the same molecule, the selectivity ratio in data set [3] was < 1.

Take `O=[N+]([O-])c1ccc(NC(=S)OCCc2cccc(Cl)c2)cc1`: the EC50 in data set [1] was determined as 1.5 µM. The cytotoxic concentration (CC50) in data set [2] was > 100 µM. Also, the selectivity ratio in data set [3] was > 67.

With `CC(COc1ccccc1)OC(=S)Nc1ccc(F)cc1` (racemic), the EC50 in data set [1] worked out at 11 µM. The CC50 in data set [2] is > 100 µM. For the same molecule, the selectivity ratio in data set [3] was > 9.

`S=C(Nc1ccccc1)OCCc1ccccc1` had a CC50 in data set [2] of 100 µM.

Turning to `S=C(Nc1ccc(Cl)cc1)OCCc1ccccc1`, the CC50 in data set [2] was > 100 µM.

On to `CC(Cc1ccccc1)OC(=S)Nc1ccc([N+](=O)[O-])cc1` (racemic), for which the concentration giving a half-maximal response (EC50) in data set [1] came out at 1.3 µM. For the same molecule, in data set [2], the 50% cytotoxic concentration (CC50) was determined as 39 µM. Also, the selectivity ratio in data set [3] was 30.

For `O=[N+]([O-])c1ccc(NC(=S)OCCOc2ccc(Br)cc2)cc1`, the EC50 in data set [1] was > 100 µM. In addition, the 50% cytotoxic concentration (CC50) in data set [2] is > 100 µM.

As to `CC(OC(=S)Nc1ccc(Cl)cc1)c1cccc2ccccc12` (racemic), in data set [1], the EC50 was 82 µM. Also, the CC50 in data set [2] is > 100 µM. Also, the selectivity ratio in data set [3] was > 1.2.

On to `CC(COc1ccccc1)OC(=S)Nc1ccc([N+](=O)[O-])cc1` (racemic), for which the EC50 in data set [1] was 2.6 µM. In addition, the cytotoxic concentration (CC50) in data set [2] was > 100 µM. Besides, the selectivity ratio in data set [3] is > 38.

With `O=[N+]([O-])c1ccc(NC(=S)OCCc2ccccc2O)cc1`, in data set [1], the 50% effective concentration (EC50) is 10 µM. In data set [2], this molecule came in with a 50% cytotoxic concentration (CC50) of 36 µM. Further, the selectivity ratio in data set [3] turned out to be 3.6.

Turning to `S=C(Nc1ccccc1)OCc1c(Cl)cccc1Cl`, in data set [1], the EC50 was > 100 µM. Further, the 50% cytotoxic concentration (CC50) in data set [2] was > 100 µM.

On to `CC(COC(=S)Nc1ccc(Cl)c([N+](=O)[O-])c1)c1ccccc1` (racemic), for which the EC50 in data set [1] turned out to be 0.5 µM. The midpoint of cytotoxicity in data set [2], the CC50, lay at 41 µM. The selectivity ratio in data set [3] is 82.

As to `S=C(Nc1ccccc1)OCc1cccs1`, the EC50 in data set [1] is > 38 µM. This molecule showed a half-maximal cytotoxic concentration (CC50) in data set [2] of 38 µM. For the same molecule, the selectivity ratio in data set [3] is < 1.

On to `O=[N+]([O-])c1ccc(NC(=S)OCCc2ccc(Cl)cc2)cc1`, for which the EC50 in data set [1] amounted to 13 µM. Also, in data set [2], the half-maximal cytotoxic concentration (CC50) was > 100 µM. The selectivity ratio in data set [3] is > 7.7.

As for `O=[N+]([O-])c1ccc(NC(=S)OCCc2ccc(O)cc2)cc1`, in data set [1], the half-maximal effective concentration (EC50) is > 41 µM. Half-maximal cytotoxicity in data set [2] (CC50) was put at 41 µM. Besides, the selectivity ratio in data set [3] was < 1.

Take `S=C(Nc1ccccc1)OCCSc1ccccc1`: in data set [1], the 50% effective concentration (EC50) amounted to 38 µM. The CC50 in data set [2] is > 100 µM. In addition, the selectivity ratio in data set [3] is > 2.6.

For the molecule `COc1ccccc1CCOC(=S)Nc1ccc([N+](=O)[O-])cc1`, the EC50 in data set [1] turned out to be 0.1 µM. In addition, the half-maximal cytotoxic concentration (CC50) in data set [2] was > 100 µM. In data set [3], the selectivity ratio was > 1000.

Consider `S=C(Nc1ccc(Cl)cc1)OCCOc1ccccc1`, for which the EC50 in data set [1] is 2.9 µM. Besides, in data set [2], it took 34 µM to reach half-maximal cytotoxicity (CC50). In data set [3], the selectivity ratio came out at 12.

As for `S=C(Nc1ccccc1)OC/C=C/c1ccccc1`, the concentration for a half-maximal effect (EC50) in data set [1] was determined as 67 µM. The CC50 in data set [2] was > 100 µM. Besides, in data set [3], the selectivity ratio is > 1.5.

On to `CC(OC(=S)Nc1ccc(Cl)cc1)c1ccc2ccccc2c1` (racemic), for which the EC50 in data set [1] came to 26 µM. Besides, in data set [2], the half-maximal cytotoxic concentration (CC50) is > 100 µM. The selectivity ratio in data set [3] is > 3.8.

With `COc1cccc(CCOC(=S)Nc2ccc(Cl)c(Cl)c2)c1`, the 50% effective concentration (EC50) in data set [1] turned out to be 1 µM. The molecule further showed a CC50 in data set [2] of 44 µM. Besides, the selectivity ratio in data set [3] came out at 44.

Turning to `Cc1ccc(NC(=S)OCCc2ccccc2)cc1`, the half-maximal cytotoxic concentration (CC50) in data set [2] was > 100 µM.

In the case of `COc1ccccc1CCOC(=S)Nc1ccc(Cl)c([N+](=O)[O-])c1`, the EC50 in data set [1] was determined as 0.9 µM. The same molecule registered a CC50 in data set [2] of 44 µM. In addition, the selectivity ratio in data set [3] stood at 49.

For `COc1ccc(NC(=S)OCCc2ccccc2)cc1`, in data set [2], the CC50 was determined as 36 µM.

Turning to `CCC(OC(=S)Nc1ccccc1)c1ccccc1` (racemic), in data set [1], the EC50 is > 100 µM. For the same molecule, in data set [2], the 50% cytotoxic concentration (CC50) was > 100 µM.

For the molecule `S=C(Nc1ccccc1)OCc1cccc(Oc2ccccc2)c1`, the EC50 in data set [1] was > 100 µM. Also, the 50% cytotoxic concentration (CC50) in data set [2] is > 100 µM.

For `S=C(Nc1ccccc1)OCCOc1ccccc1`, the 50% effective concentration (EC50) in data set [1] was 5.8 µM. Besides, the CC50 in data set [2] was > 100 µM. Further, in data set [3], the selectivity ratio was > 17.

For the molecule `COc1ccc(NC(=S)OC(C)COc2ccccc2)cc1` (racemic), in data set [1], the 50% effective concentration (EC50) is > 100 µM. Also, in data set [2], the CC50 was > 100 µM.

The values above are taken from ChEMBL document CHEMBL1156536, “Thiocarbamates as non-nucleoside HIV-1 reverse transcriptase inhibitors. Part 2: Parallel synthesis, molecular modelling and structure-activity relationship studies on analogues of O-(2-phenylethyl)-N-phenylthiocarbamate” (Bioorg Med Chem, 2008).
